Test results published in PubChem BioAssay (NCI).
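Tested at 5 concentrations; 48 h exposure; 96-well plates; endpoints linearly interpolated, else capped at highest concentration. Abbreviation: GI50, concentration required for 50% inhibition of growth. TGI: total growth inhibition.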

Experiments:
Assay in all cases: NCI-60 cell line screen, 48 h
M14 melanoma = test system: M14 melanoma
HCT-116 colon = test system: HCT-116 colon
K-562 leukemia = test system: K-562 leukemia
EKVX NSCLC = test system: EKVX NSCLC
MDA-MB-435 = test system: MDA-MB-435
SF-539 CNS = test system: SF-539 CNS
HCT-15 colon = test system: HCT-15 colon
CCRF-CEM leukemia = test system: CCRF-CEM leukemia
HOP-92 NSCLC = test system: HOP-92 NSCLC
A549 NSCLC = test system: A549 NSCLC
NCI-H460 lung = test system: NCI-H460 lung
NCI-H23 lung = test system: NCI-H23 lung
UO-31 renal = test system: UO-31 renal
HL-60(TB) leukemia = test system: HL-60(TB) leukemia
HS 578T breast = test system: HS 578T breast
U251 CNS = test system: U251 CNS
ACHN renal = test system: ACHN renal
OVCAR-8 ovarian = test system: OVCAR-8 ovarian
A498 renal = test system: A498 renal
NCI-H226 lung = test system: NCI-H226 lung
T-47D breast = test system: T-47D breast
RPMI-8226 leukemia = test system: RPMI-8226 leukemia
NCI/ADR-RES ovarian = test system: NCI/ADR-RES ovarian
PC-3 prostate = test system: PC-3 prostate
MALME-3M melanoma = test system: MALME-3M melanoma
SF-268 CNS = test system: SF-268 CNS
SW-620 colon = test system: SW-620 colon
OVCAR-3 ovarian = test system: OVCAR-3 ovarian
786-0 renal = test system: 786-0 renal
SNB-19 CNS = test system: SNB-19 CNS
SK-MEL-5 melanoma = test system: SK-MEL-5 melanoma
COLO 205 colon = test system: COLO 205 colon
RXF 393 renal = test system: RXF 393 renal
IGROV1 ovarian = test system: IGROV1 ovarian
OVCAR-4 ovarian = test system: OVCAR-4 ovarian
HCC-2998 colon = test system: HCC-2998 colon
UACC-257 melanoma = test system: UACC-257 melanoma
SK-MEL-28 melanoma = test system: SK-MEL-28 melanoma
HOP-62 NSCLC = test system: HOP-62 NSCLC
MCF7 breast = test system: MCF7 breast
OVCAR-5 ovarian = test system: OVCAR-5 ovarian
DU-145 prostate = test system: DU-145 prostate
SNB-75 CNS = test system: SNB-75 CNS
LOX IMVI melanoma = test system: LOX IMVI melanoma
KM12 colon = test system: KM12 colon
SK-OV-3 ovarian = test system: SK-OV-3 ovarian
CAKI-1 renal = test system: CAKI-1 renal
UACC-62 melanoma = test system: UACC-62 melanoma
SN12C renal = test system: SN12C renal
MDA-MB-231 breast = test system: MDA-MB-231 breast
SF-295 CNS = test system: SF-295 CNS

CN(C)CC(O)c1ccc(/C=C/c2ccc(Cl)cc2)cc1 (configuration not stated)
GI50 (M14 melanoma): 1670 nM
TGI (M14 melanoma): 3110 nM
GI50 (HCT-116 colon): 1460 nM
TGI (HCT-116 colon): 2780 nM
GI50 (K-562 leukemia): 1140 nM
TGI (K-562 leukemia): 3550 nM
GI50 (EKVX NSCLC): 1340 nM
TGI (EKVX NSCLC): 3190 nM
GI50 (MDA-MB-435): 1620 nM
TGI (MDA-MB-435): 3130 nM
GI50 (SF-539 CNS): 1820 nM
TGI (SF-539 CNS): 3840 nM
GI50 (HCT-15 colon): 1620 nM
TGI (HCT-15 colon): 3320 nM
GI50 (CCRF-CEM leukemia): 2260 nM
TGI (CCRF-CEM leukemia): 4880 nM
GI50 (HOP-92 NSCLC): 1260 nM
TGI (HOP-92 NSCLC): 3130 nM
GI50 (A549 NSCLC): 1860 nM
TGI (A549 NSCLC): 3380 nM
GI50 (NCI-H460 lung): 1450 nM
TGI (NCI-H460 lung): 2750 nM
GI50 (NCI-H23 lung): 1620 nM
TGI (NCI-H23 lung): 3190 nM
GI50 (UO-31 renal): 1300 nM
TGI (UO-31 renal): 2610 nM
GI50 (HL-60(TB) leukemia): 1110 nM
TGI (HL-60(TB) leukemia): 2700 nM
GI50 (HS 578T breast): 1490 nM
TGI (HS 578T breast): 3210 nM
GI50 (U251 CNS): 1530 nM
TGI (U251 CNS): 2860 nM
GI50 (ACHN renal): 1630 nM
TGI (ACHN renal): 3010 nM
GI50 (OVCAR-8 ovarian): 1750 nM
TGI (OVCAR-8 ovarian): 3320 nM
GI50 (A498 renal): 1370 nM
TGI (A498 renal): 2660 nM
GI50 (NCI-H226 lung): 11900 nM
TGI (NCI-H226 lung): 27300 nM
GI50 (T-47D breast): 3760 nM
TGI (T-47D breast): 16600 nM
GI50 (RPMI-8226 leukemia): 5340 nM
TGI (RPMI-8226 leukemia): 22400 nM
GI50 (NCI/ADR-RES ovarian): 1670 nM
TGI (NCI/ADR-RES ovarian): 3190 nM
GI50 (PC-3 prostate): 1420 nM
TGI (PC-3 prostate): 3090 nM
GI50 (MALME-3M melanoma): 1600 nM
TGI (MALME-3M melanoma): 3340 nM
GI50 (SF-268 CNS): 1490 nM
TGI (SF-268 CNS): 2880 nM
GI50 (SW-620 colon): 1600 nM
TGI (SW-620 colon): 2950 nM
GI50 (OVCAR-3 ovarian): 1570 nM
TGI (OVCAR-3 ovarian): 2910 nM
GI50 (786-0 renal): 1630 nM
TGI (786-0 renal): 2990 nM
GI50 (SNB-19 CNS): 2880 nM
TGI (SNB-19 CNS): 10400 nM
GI50 (SK-MEL-5 melanoma): 3490 nM
TGI (SK-MEL-5 melanoma): 13700 nM
GI50 (COLO 205 colon): 1710 nM
TGI (COLO 205 colon): 3170 nM
GI50 (RXF 393 renal): 3890 nM
TGI (RXF 393 renal): 16200 nM
GI50 (IGROV1 ovarian): 1210 nM
TGI (IGROV1 ovarian): 2640 nM
GI50 (OVCAR-4 ovarian): 2490 nM
TGI (OVCAR-4 ovarian): 6580 nM
GI50 (HCC-2998 colon): 1540 nM
TGI (HCC-2998 colon): 2970 nM
GI50 (UACC-257 melanoma): 1630 nM
TGI (UACC-257 melanoma): 3150 nM
GI50 (SK-MEL-28 melanoma): 1840 nM
TGI (SK-MEL-28 melanoma): 3450 nM
GI50 (HOP-62 NSCLC): 3130 nM
TGI (HOP-62 NSCLC): 14000 nM
GI50 (MCF7 breast): 1630 nM
TGI (MCF7 breast): 3190 nM
GI50 (OVCAR-5 ovarian): 1720 nM
TGI (OVCAR-5 ovarian): 3590 nM
GI50 (DU-145 prostate): 1520 nM
TGI (DU-145 prostate): 2850 nM
GI50 (SNB-75 CNS): 1710 nM
TGI (SNB-75 CNS): 4180 nM
GI50 (LOX IMVI melanoma): 1630 nM
TGI (LOX IMVI melanoma): 2980 nM
GI50 (KM12 colon): 1660 nM
TGI (KM12 colon): 3030 nM
GI50 (SK-OV-3 ovarian): 13000 nM
TGI (SK-OV-3 ovarian): 26500 nM
GI50 (CAKI-1 renal): 706 nM
TGI (CAKI-1 renal): 2050 nM
GI50 (UACC-62 melanoma): 1620 nM
TGI (UACC-62 melanoma): 3020 nM
GI50 (SN12C renal): 10400 nM
TGI (SN12C renal): 22900 nM
GI50 (MDA-MB-231 breast): 1700 nM
TGI (MDA-MB-231 breast): 3140 nM
GI50 (SF-295 CNS): 1530 nM
TGI (SF-295 CNS): 3000 nM
